Data set [1] in a line: Chemical stability on storage up to 3 months (HPLC purity), Table 13-4. The class given is physicochemical. The settings on record: for stability in chemical properties: 40° C./75% humidity (sealed and protected from light); for Purity (%), 230 nm, Day 13: 40° C./75% humidity, sealed and protected from light. As to the method:
B) The HPLC method used for the stability study was as follows:
The vials were sealed with tin foil and then separately placed under the conditions of 40° C. temperature/75% humidity or 25° C. temperature/60% humidity for about 3 months. The samples after being placed for 0 months, 2 weeks, 1 month and 3 months were taken and each dissolved in a diluent to prepare a solution at about 1.0 mg/mL, which was then tested for chemical stability by HPLC analysis using Shimadzu LC-20ADxr.

The nature of data set [2]: Hygroscopicity test (dynamic vapor sorption, DVS). The class given is physicochemical. To be noted: for weight gain (DVS): 25° C.; for hygroscopicity: DVS. The protocol: The instrument used for dynamic vapor sorption analysis was Vsorp (ProUmid GmbH & Co. KG, Germany). Each sample was subjected to vapor sorption/desorption tests using the Vsorp vapor sorption analyzer (ProUmid GmbH & Co. KG, Germany). The sample was placed in a tared sample tray, and the change in the sample mass with humidity (0-90% RH) at 25° C. was recorded.

The nature of data set [3]: Solid-state stability test (HPLC purity and XRPD), Table 13-3. In kind it is physicochemical. As to the method:
B) The HPLC method used for the stability test was as follows:
The samples after being placed for 0 days, 1 week, 2 weeks and 30 days were taken and each dissolved in a diluent to prepare a solution at about 1.0 mg/mL, which was then tested for chemical stability by HPLC analysis using Agilent HPLC 1260 series. The solid samples after being placed for 2 weeks and 30 days were tested for physical stability by XRPD analysis.

Data set [4] is described as follows: Solubility in biological media and purified water at 37° C. (tartrate, ethanesulfonate, 2-hydroxyethanesulfonate, sulfate). The class given is physicochemical. As to the method: (§1) A) The HPLC method used for the solubility test was as follows:
The centrifuge tubes were shaken on a constant temperature incubator shaker (at a temperature of 37° C., with a shaking frequency of 100 times/min).

Data set [5] can be described thus: Solubility in biologically relevant media at 37° C. (free base crystal form I, crystal form III of maleate). The class given is physicochemical. The settings on record: for pH 24 h: filtrate. As to the method:
as §1
15 mg of each sample was weighed and dispersed in 3.0 mL of biologically relevant medium. The dispersion was shaken on a shaker at a rotation speed of 800 rpm at 37° C. 1 mL of the dispersion was taken at 0.5 h, 2 h, and 24 h, and filtered. The filtrate was tested for solubility by Agilent HPLC 1260 series and for pH value by a pH meter. The filter cake was characterized for the crystal form by XRPD.

Data set [6] can be described thus: Pharmacokinetic study in rats. In kind it is in vivo, SD rats. As to the method:
Compound I, 2-hydroxyethanesulfonate of compound I, ethanesulfonate (crystal form I) of compound I, tartrate of compound I, and sulfate of compound I were each accurately weighed, and the required volume of vehicle was added. The mixture was stirred for 5 min, then sonicated below 25° C. until no large particles were visible to the naked eye, and further stirred for 30 min until a homogeneous suspension was obtained. The suspension was then used for administration.
Male SPF-grade SD rats (Beijing Vital River Laboratory Animal Technology Co., Ltd.) were given compound I, the 2-hydroxyethanesulfonate of compound I, the ethanesulfonate of compound I (crystal form I), the tartrate of compound I, and the sulfate of compound I by single intragastric administration after an acclimation period (with free access to water and food). Blood was collected from the orbital venous plexus of the rats at 0.167 h, 0.5 h, 1 h, 2 h, 3 h, 4 h, 6 h, 9 h, 12 h, and 24 h after administration. Each blood sample was centrifuged at 3500×g for 10 min at 4° C. The supernatant was then collected, and the concentration of compound I in the plasma was measured by LC-MS/MS (AB Sciex TRIPLE QUAD 3500). The data were analyzed using a non-compartmental model in WinNonlin (version 5.2.1 Pharsight, Mountain View, CA) to obtain PK parameters.

Where [7] appears, read: filter cake after 24 h in FaSSIF.
[8] abbreviates: filter cake after 24 h in FeSSIF.
Where [9] appears, read: 60° C./sealed, 60° C./sealed/N2, 40° C./75% RH (open), RT/sealed for 2 weeks.
The mark [10] stands for this setting: simulated gastric fluid, thermodynamic from solid, SGF, 37° C.
[11] abbreviates: male SD rats, single intragastric administration, 10 mg/kg (calculated as compound I), 10 mL/kg, suspension in 0.5% CMC-Na aqueous solution, plasma concentration of compound I.

Converted amounts (≈) assume the structure as drawn.

`Cn1c(C(=O)N2CC(F)(F)C2)cc2c1CN(c1ncc(F)c(Nc3ccc(-c4cn[nH]c4)cc3)n1)CC2.O=S(=O)(O)CCO`: in data set [1], the “stability in chemical properties” value is recorded as “substantially stable”; the “Purity (%), 230 nm, Day 13” value came to 98.7%; the “Purity (%), 230 nm, Day 0” value is on record as 98.76%.
With `CCS(=O)(=O)O.Cn1c(C(=O)N2CC(F)(F)C2)cc2c1CN(c1ncc(F)c(Nc3ccc(-c4cn[nH]c4)cc3)n1)CC2` [Crystal form I of ethanesulfonate], in data set [1], the “stability in chemical properties” value is reported as “substantially stable”; the “Purity (%), 230 nm, Day 13” value was determined as 98.69%; the “Purity (%), 230 nm, Day 0” value is reported as 98.68%. Besides, in data set [2], the “XRPD spectra before and after the DVS test” value is given as “crystal form remained unchanged”; the hygroscopicity result is “slightly hygroscopic”. Also, the “weight gain (DVS)” value in data set [2] (0.0% RH to 80% RH) is “about 0.3%”. The “stability in physical and chemical properties” value in data set [3] (40° C./75% RH (open) and 60° C./sealed) was “substantially stable”. Moreover, in data set [3] (40° C./75% RH (open), Day 30), the “Purity (%), 230 nm, 40° C./75% RH (open) Day 30” value amounted to 99.48%. In addition, the “Purity (%), 230 nm, 40° C./75% RH (open) Week 2” value (“Purity (%) … (open) Week 2” below) in data set [3] (40° C./75% RH (open)) was determined as 99.49%. Moreover, the “Purity (%), 230 nm, 60° C./sealed Day 30” value in data set [3] (60° C./sealed, Day 30) is reported as 99.49%. In data set [3] (60° C./sealed), the “Purity (%), 230 nm, 60° C./sealed Week 2” value stood at 99.50%. Also, the “Purity (%), 230 nm, Day 0” value in data set [3] came to 99.48%. For the same compound, the “solubility in SGF in the first 4 h” value in data set [4] was “around 100 μg/mL”.
As for `Cn1c(C(=O)N2CC(F)(F)C2)cc2c1CN(c1ncc(F)c(Nc3ccc(-c4cn[nH]c4)cc3)n1)CC2.O=C(O)/C=C\C(=O)O` [Crystal form III of maleate], in data set [5] (FaSSIF, 37° C.), the “Solubility 0.5 h” value was 0.14 µg/mL and the “Solubility 24 h” value was found to be 1.11 µg/mL. Moreover, in data set [5] (FeSSIF, 37° C.), the “Solubility 0.5 h” value was 0.74 µg/mL, the “Solubility 2 h” value was found to be 2.47 µg/mL and the “Solubility 24 h” value turned out to be 3.90 µg/mL. Further, in data set [5] (SGF, 37° C.), the “Solubility 2 h” value worked out at 2.18 µg/mL and the “Solubility 24 h” value is 6.45 µg/mL. Moreover, in data set [5] (setting [7]), the “XRPD (24 h)” value is given as “underwent a crystal form transformation”. In addition, the “XRPD (24 h)” value in data set [5] (setting [8]) is “underwent a crystal form transformation”. In addition, in data set [5] (filter cake after 24 h in SGF), the “XRPD (24 h)” value is “underwent a crystal form transformation”. Moreover, in data set [5] (FaSSIF), the “pH 24 h” value stood at 5.33. Besides, the “pH 24 h” value in data set [5] (FeSSIF) amounted to 4.90. For the same compound, in data set [5] (SGF), the “pH 24 h” value amounted to 1.29. For the same compound, in data set [2], the “XRPD spectra before and after the DVS test” value is “crystal form remained unchanged”; the hygroscopicity result was “slightly hygroscopic”. In data set [2] (0.0% RH to 80% RH), the “weight gain (DVS)” value turned out to be 0.29%. The “weight gain (DVS)” value in data set [2] (0.0% RH to 90% RH) was determined as 0.37%. For the same compound, in data set [3] (40° C./75% RH (open)), the “Purity (%), 230 nm, 40° C./75% RH (open) Week 1” value is reported as 98.00% and the “Purity (%) … (open) Week 2” value is given as 97.92%. Also, the “stability in physical and chemical properties” value in data set [3] (setting [9]) is “slight degradation”. Further, in data set [3] (60° C./sealed), the “Purity (%), 230 nm, 60° C./sealed Week 1” value came out at 97.96% and the “Purity (%), 230 nm, 60° C./sealed Week 2” value was determined as 97.85%. In addition, in data set [3], the “Purity (%), 230 nm, 60° C./sealed/N2 Week 1” value came to 97.95%; the “Purity (%), 230 nm, 60° C./sealed/N2 Week 2” value worked out at 97.97%; the “Purity (%), 230 nm, Day 0” value is listed as 98.11%; the “Purity (%), 230 nm, RT/sealed Week 2” value came to 98.02%.
Usually solubility stands for how much of the substance goes into solution per volume. As for `Cn1c(C(=O)N2CC(F)(F)C2)cc2c1CN(c1ncc(F)c(Nc3ccc(-c4cn[nH]c4)cc3)n1)CC2` [Free base crystal form I], the solubility in data set [5] (fassgf or other biorelevant, thermodynamic from solid, SGF, FaSSIF and FeSSIF, 37° C., read-out: solubility in the three biologically relevant media) was less than 50 µg/mL. Besides, the “XRPD (24 h)” value in data set [5] (setting [7]) is reported as “remained unchanged”; in data set [5] (setting [8]), “remained unchanged”; in data set [5] (filter cake after 24 h in SGF), “underwent a crystal form transformation”. Also, the “pH 24 h” value in data set [5] (FaSSIF) worked out at 6.53; in data set [5] (FeSSIF), 5.02; in data set [5] (SGF), 1.30. In addition, the solubility at 24 h was 8.57 µg/mL (≈ 16.9 µM) in data set [5] (pH 1.3, simulated gastric fluid, thermodynamic from solid, SGF, 37° C.); 3.35 µg/mL (≈ 6.59 µM) in data set [5] (pH 5.02, thermodynamic from solid, FeSSIF, 37° C.); 0.39 µg/mL (≈ 0.767 µM) in data set [5] (pH 6.53, thermodynamic from solid, FaSSIF, 37° C.). Further, the solubility at 0.5 h is 11.5 µg/mL (≈ 22.6 µM) in data set [5] (setting [10]) and 0.29 µg/mL (≈ 0.57 µM) in data set [5] (thermodynamic from solid, FaSSIF, 37° C.). Besides, the solubility at 2 h in data set [5] (setting [10]) was 6.69 µg/mL (≈ 13.2 µM); in data set [5] (thermodynamic from solid, FeSSIF, 37° C.), 1.79 µg/mL (≈ 3.52 µM). Further, the “XRPD spectra before and after the DVS test” value in data set [2] is “crystal form remained unchanged”. Besides, the “weight gain (DVS)” value in data set [2] (0.0% RH to 80% RH) is 0.30%; in data set [2] (0.0% RH to 90% RH), 0.46%. In addition, in data set [2], the hygroscopicity entry is “slightly hygroscopic”. Besides, the “Purity (%), 230 nm, 40° C./75% RH (open) Week 1” value in data set [3] (40° C./75% RH (open)) worked out at 97.82%. In addition, in data set [3] (40° C./75% RH (open)), the “Purity (%) … (open) Week 2” value amounted to 97.88%. For the same compound, the “stability in physical and chemical properties” value in data set [3] (setting [9]) is given as “substantially stable”. Moreover, the “Purity (%), 230 nm, 60° C./sealed Week 1” value in data set [3] (60° C./sealed) came out at 97.82%. Besides, the “Purity (%), 230 nm, 60° C./sealed Week 2” value in data set [3] (60° C./sealed) is 97.85%. Further, the “Purity (%), 230 nm, 60° C./sealed/N2 Week 1” value in data set [3] came to 97.83%. Further, the “Purity (%), 230 nm, 60° C./sealed/N2 Week 2” value in data set [3] is 97.84%. For the same compound, the “Purity (%), 230 nm, Day 0” value in data set [3] is reported as 97.90%. Moreover, the “Purity (%), 230 nm, RT/sealed Week 2” value in data set [3] came out at 97.93%.
The Cmax is the peak of the concentration-time curve. As to `O=S(=O)(O)CCO` [Sample 2-Hydroxyethanesulfonate, 2-Hydroxyethanesulfonate], in data set [6] (setting [11]), the AUClast was 9449 ng·h/mL and the Cmax is listed as 827 ng/mL.
For the compound `O=S(=O)(O)O` [Sulfate], the AUClast in data set [6] (rat, in vivo, po, 10 mg/kg) stood at 13429 ng·h/mL.

The values are drawn from patent US20250074908A1, “SALT OF ROCK INHIBITOR, CRYSTAL FORM OF SALT, COMPOSITION, AND PHARMACEUTICAL USE” (WUHAN CREATERNA SCIENCE AND TECHNOLOGY CO., LTD., priority 2022, published 2025).
